In ChEMBL document CHEMBL1126460, “The use of synthetic phosphopeptides for epitope mapping of the s1-casein phosphopeptide segment 5979” (Bioorg Med Chem Lett, 1992) one finds inhibition data, which are given here for six molecules.

This assay in a line: Peptide was evaluated for inhibition in competitive ELISA at a concentration of 1 mM using casein phosphopeptide alpha s1-casein (59-79) as the adsorbed antigen.

As for `CC[C@H](C)[C@H](NC(=O)[C@H](COP(=O)(Oc1ccccc1)Oc1ccccc1)NC(=O)[C@H](CCC(=O)O)NC(C)=O)C(=O)N[C@@H](COP(=O)(Oc1ccccc1)Oc1ccccc1)C(=O)N[C@@H](COP(=O)(Oc1ccccc1)Oc1ccccc1)C(=O)N[C@@H](COP(=O)(Oc1ccccc1)Oc1ccccc1)C(=O)N[C@@H](CCC(=O)O)C(=O)NC(CCC(=O)O)C(=O)NC` (stereo partly specified), the inhibition – broadly, the percentage by which the read-out fell short of the control – worked out at 20%.

In turn, `CC[C@H](C)[C@H](NC(=O)[C@H](COP(=O)(Oc1ccccc1)Oc1ccccc1)NC(=O)[C@H](CCC(=O)O)NC(=O)[C@H](C)NC(=O)[C@@H](N)CCC(=O)O)C(=O)NC` came in with an inhibition of 10.9%.

In turn, `CC[C@H](C)[C@H](N)C(=O)N[C@H](C(=O)N1CCC[C@@H]1C(=O)N[C@@H](CC(N)=O)C(=O)N[C@@H](CO)C(=O)N[C@H](C(=O)N[C@@H](CCC(=O)O)C(=O)N[C@@H](CCC(=O)O)C(=O)NC)C(C)C)C(C)C` returned an inhibition of 12%.

Regarding `CC[C@H](C)[C@H](N)C(=O)N[C@H](C(=O)N1CCC[C@@H]1C(=O)N[C@@H](CC(N)=O)C(=O)N[C@@H](COP(=O)(Oc1ccccc1)Oc1ccccc1)C(=O)N[C@H](C(=O)N[C@@H](CCC(=O)O)C(=O)N[C@@H](CCC(=O)O)C(=O)NC)C(C)C)C(C)C`, the inhibition was determined as 60.3%.

Turning to H-QMEAE-OH, the inhibition stood at 10%.

`CC[C@H](C)[C@H](NC(=O)[C@H](CCC(=O)O)NC(=O)[C@@H](N)CCC(=O)O)C(=O)N[C@H](C(=O)N1CCC[C@@H]1C(=O)N[C@@H](CC(N)=O)C(=O)O)C(C)C` yielded an inhibition of 10.8%.
